PubChem BioAssay (NCI)
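The compound was tested at five concentrations on cells cultured in 96-well plates, with a 48-hour exposure period. GI50 = concentration required for 50% inhibition of growth. The concentration for full growth arrest is given as TGI.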

Columns and labels:
Test in all cases: DTP human tumour cell line panel, 48 h
ACHN renal = test system: ACHN renal
OVCAR-5 ovarian = test system: OVCAR-5 ovarian
LOX IMVI melanoma = test system: LOX IMVI melanoma
RPMI-8226 leukemia = test system: RPMI-8226 leukemia
MCF7 breast = test system: MCF7 breast
IGROV1 ovarian = test system: IGROV1 ovarian
PC-3 prostate = test system: PC-3 prostate
U251 CNS = test system: U251 CNS
HT29 colon = test system: HT29 colon
CCRF-CEM leukemia = test system: CCRF-CEM leukemia

COc1ccc(-c2nn(-c3cccc(NC(=O)Nc4cccc(C(F)(F)F)c4)c3)cc2-c2ccncc2)cc1Cl
GI50 (ACHN renal): 1.88 µM
TGI (ACHN renal): > 100 µM
GI50 (OVCAR-5 ovarian): 3.73 µM
TGI (OVCAR-5 ovarian): > 100 µM
GI50 (LOX IMVI melanoma): 3.02 µM
TGI (LOX IMVI melanoma): > 100 µM
GI50 (RPMI-8226 leukemia): 1.02 µM
TGI (RPMI-8226 leukemia): 4.54 µM
GI50 (MCF7 breast): 1.91 µM
TGI (MCF7 breast): > 100 µM
GI50 (IGROV1 ovarian): 3.73 µM
TGI (IGROV1 ovarian): > 100 µM
GI50 (PC-3 prostate): 0.986 µM
TGI (PC-3 prostate): 8.54 µM
GI50 (U251 CNS): 1.06 µM
TGI (U251 CNS): 3.98 µM
GI50 (HT29 colon): 2.24 µM
TGI (HT29 colon): 49.1 µM
GI50 (CCRF-CEM leukemia): 1.54 µM
TGI (CCRF-CEM leukemia): 7.59 µM

Clc1ccc(-c2cn(-c3ccccc3)c(-c3ccccc3)n2)c(Cl)c1
GI50 (ACHN renal): 2.22 µM
TGI (ACHN renal): > 50 µM
GI50 (OVCAR-5 ovarian): > 16 µM
TGI (OVCAR-5 ovarian): > 45.1 µM
GI50 (LOX IMVI melanoma): > 14 µM
TGI (LOX IMVI melanoma): > 50 µM
GI50 (RPMI-8226 leukemia): 4.93 µM
TGI (RPMI-8226 leukemia): > 10.2 µM
GI50 (MCF7 breast): 1.56 µM
TGI (MCF7 breast): > 12.3 µM
GI50 (IGROV1 ovarian): 2.92 µM
TGI (IGROV1 ovarian): > 44.8 µM
GI50 (PC-3 prostate): 5.43 µM
TGI (PC-3 prostate): > 50 µM
GI50 (U251 CNS): 1.25 µM
TGI (U251 CNS): 3.83 µM
GI50 (HT29 colon): 1.79 µM
TGI (HT29 colon): > 50 µM
GI50 (CCRF-CEM leukemia): 2.51 µM
TGI (CCRF-CEM leukemia): > 50 µM

CC(C)[C@@H](CS(=O)(=O)C(C)C)N1C(=O)[C@@](C)(CC(=O)O)C[C@H](c2cccc(Cl)c2)[C@H]1c1ccc(Cl)cc1
GI50 (ACHN renal): 0.394 µM
TGI (ACHN renal): 15.4 µM
GI50 (OVCAR-5 ovarian): 25.7 µM
TGI (OVCAR-5 ovarian): > 100 µM
GI50 (LOX IMVI melanoma): 0.485 µM
TGI (LOX IMVI melanoma): 21 µM
GI50 (RPMI-8226 leukemia): 15 µM
TGI (RPMI-8226 leukemia): 53 µM
GI50 (MCF7 breast): 0.282 µM
TGI (MCF7 breast): 3.52 µM
GI50 (IGROV1 ovarian): 8.61 µM
TGI (IGROV1 ovarian): > 85.1 µM
GI50 (PC-3 prostate): 5.75 µM
TGI (PC-3 prostate): > 69.3 µM
GI50 (U251 CNS): 7.86 µM
TGI (U251 CNS): 25.3 µM
GI50 (HT29 colon): 26.6 µM
TGI (HT29 colon): > 90.1 µM
GI50 (CCRF-CEM leukemia): 18.2 µM
TGI (CCRF-CEM leukemia): 66.1 µM

COc1cc2c3c(n(C)c(=O)c2cc1OC)-c1cc2c(cc1/C3=C\[C@@H](N)CCCCN)OCO2
GI50 (ACHN renal): 2.46 µM
TGI (ACHN renal): > 41.4 µM
GI50 (OVCAR-5 ovarian): 5.14 µM
TGI (OVCAR-5 ovarian): > 100 µM
GI50 (LOX IMVI melanoma): 0.298 µM
TGI (LOX IMVI melanoma): 3.9 µM
GI50 (RPMI-8226 leukemia): 2.57 µM
TGI (RPMI-8226 leukemia): 35.2 µM
GI50 (MCF7 breast): 0.657 µM
TGI (MCF7 breast): > 49.3 µM
GI50 (IGROV1 ovarian): 2.24 µM
TGI (IGROV1 ovarian): > 100 µM
GI50 (PC-3 prostate): 2.71 µM
TGI (PC-3 prostate): > 53.1 µM
GI50 (U251 CNS): < 0.0209 µM
TGI (U251 CNS): 7.41 µM
GI50 (HT29 colon): 0.337 µM
TGI (HT29 colon): > 100 µM
GI50 (CCRF-CEM leukemia): 0.996 µM
TGI (CCRF-CEM leukemia): > 100 µM

CCC(C)CC(CC)NCCN1CCN(C(CC)CC(C)CC)C1=S (stereo not given)
GI50 (ACHN renal): 1.76 µM
TGI (ACHN renal): 3.14 µM
GI50 (OVCAR-5 ovarian): 1.72 µM
TGI (OVCAR-5 ovarian): 3.32 µM
GI50 (LOX IMVI melanoma): 1.57 µM
TGI (LOX IMVI melanoma): 2.91 µM
GI50 (RPMI-8226 leukemia): 1.85 µM
TGI (RPMI-8226 leukemia): 4.25 µM
GI50 (MCF7 breast): 1.63 µM
TGI (MCF7 breast): 2.98 µM
GI50 (IGROV1 ovarian): 2.23 µM
TGI (IGROV1 ovarian): 4.53 µM
GI50 (PC-3 prostate): 2.05 µM
TGI (PC-3 prostate): 6.87 µM
GI50 (U251 CNS): 1.55 µM
TGI (U251 CNS): 2.88 µM
GI50 (HT29 colon): 1.67 µM
TGI (HT29 colon): 3.1 µM
GI50 (CCRF-CEM leukemia): 1.86 µM
TGI (CCRF-CEM leukemia): 4.98 µM

COc1cccc(C2C(C#N)=C(N)Oc3cc(OC)ccc32)c1 (stereo not given)
GI50 (ACHN renal): 0.138 µM
TGI (ACHN renal): > 100 µM
GI50 (OVCAR-5 ovarian): 0.0678 µM
TGI (OVCAR-5 ovarian): > 100 µM
GI50 (LOX IMVI melanoma): 0.0835 µM
TGI (LOX IMVI melanoma): > 100 µM
GI50 (RPMI-8226 leukemia): 0.0372 µM
TGI (RPMI-8226 leukemia): 23.7 µM
GI50 (MCF7 breast): 0.0211 µM
TGI (MCF7 breast): > 72.4 µM
GI50 (IGROV1 ovarian): 0.0622 µM
TGI (IGROV1 ovarian): > 50.9 µM
GI50 (PC-3 prostate): 0.0373 µM
TGI (PC-3 prostate): > 94.6 µM
GI50 (U251 CNS): 0.0419 µM
TGI (U251 CNS): > 100 µM
GI50 (HT29 colon): 0.0416 µM
TGI (HT29 colon): 4.96 µM
GI50 (CCRF-CEM leukemia): 0.0328 µM
TGI (CCRF-CEM leukemia): > 45.7 µM

COC(=O)c1cc2c(cc1Cl)SC(N(N(C)C)S(=O)(=O)c1ccc(Cl)cc1)=NS2(=O)=O
GI50 (ACHN renal): 17.8 µM
TGI (ACHN renal): 38.5 µM
GI50 (OVCAR-5 ovarian): 20.1 µM
TGI (OVCAR-5 ovarian): 46.7 µM
GI50 (LOX IMVI melanoma): 15 µM
TGI (LOX IMVI melanoma): 28.3 µM
GI50 (RPMI-8226 leukemia): 17.1 µM
TGI (RPMI-8226 leukemia): 53.4 µM
GI50 (MCF7 breast): 17 µM
TGI (MCF7 breast): 34.8 µM
GI50 (IGROV1 ovarian): 22.5 µM
TGI (IGROV1 ovarian): 73.6 µM
GI50 (PC-3 prostate): 7.63 µM
TGI (PC-3 prostate): 20.5 µM
GI50 (U251 CNS): 17 µM
TGI (U251 CNS): 44.8 µM
GI50 (HT29 colon): 16.1 µM
TGI (HT29 colon): 31.9 µM
GI50 (CCRF-CEM leukemia): 14.1 µM
TGI (CCRF-CEM leukemia): 37.1 µM

COc1ccc(C(=O)N/N=C/c2ccc(O)cc2O)cc1Nc1ccnc(C(F)(F)F)c1
GI50 (ACHN renal): 1.54 µM
TGI (ACHN renal): 35.8 µM
GI50 (OVCAR-5 ovarian): 1.16 µM
TGI (OVCAR-5 ovarian): 33 µM
GI50 (LOX IMVI melanoma): 0.454 µM
TGI (LOX IMVI melanoma): 16.4 µM
GI50 (RPMI-8226 leukemia): 1.16 µM
TGI (RPMI-8226 leukemia): 30.8 µM
GI50 (MCF7 breast): 1.57 µM
TGI (MCF7 breast): 16.5 µM
GI50 (IGROV1 ovarian): 0.575 µM
TGI (IGROV1 ovarian): 23.4 µM
GI50 (PC-3 prostate): 0.771 µM
TGI (PC-3 prostate): 24.6 µM
GI50 (U251 CNS): 0.401 µM
TGI (U251 CNS): 29.4 µM
GI50 (HT29 colon): 3.6 µM
TGI (HT29 colon): > 69.2 µM
GI50 (CCRF-CEM leukemia): 0.128 µM
TGI (CCRF-CEM leukemia): 1.44 µM

Nc1nc(Nc2ccc3c(c2)CCC(N2CCCC2)CC3)nn1-c1cc2c(nn1)-c1ccccc1CCC2 (stereo not given)
GI50 (ACHN renal): 0.346 µM
TGI (ACHN renal): 1.59 µM
GI50 (OVCAR-5 ovarian): 1.39 µM
TGI (OVCAR-5 ovarian): 2.76 µM
GI50 (LOX IMVI melanoma): 1.34 µM
TGI (LOX IMVI melanoma): 2.69 µM
GI50 (RPMI-8226 leukemia): 1.4 µM
TGI (RPMI-8226 leukemia): 3.81 µM
GI50 (MCF7 breast): 1.35 µM
TGI (MCF7 breast): 2.79 µM
GI50 (IGROV1 ovarian): 0.455 µM
TGI (IGROV1 ovarian): 1.81 µM
GI50 (PC-3 prostate): 0.629 µM
TGI (PC-3 prostate): 2.14 µM
GI50 (U251 CNS): 1.09 µM
TGI (U251 CNS): 2.39 µM
GI50 (HT29 colon): 0.667 µM
TGI (HT29 colon): 2.6 µM
GI50 (CCRF-CEM leukemia): 1.24 µM
TGI (CCRF-CEM leukemia): 4.67 µM
